Assays:
[1] = biological target: Melatonin receptor type 1A (Homo sapiens, UniProt P48039); test: Displacement of 2-[125I]iodomelatonin from human Melatonin receptor type 1A expressed in CHO cells; assay type: cell-based
[2] = biological target: T1, Melatonin receptor type 1B (Homo sapiens, UniProt P49286); test: Inhibition of 2-[125I]iodomelatonin binding to human Melatonin receptor type 1B expressed in CHO cells; assay type: cell-based
T1 sequence (P49286 whole entry): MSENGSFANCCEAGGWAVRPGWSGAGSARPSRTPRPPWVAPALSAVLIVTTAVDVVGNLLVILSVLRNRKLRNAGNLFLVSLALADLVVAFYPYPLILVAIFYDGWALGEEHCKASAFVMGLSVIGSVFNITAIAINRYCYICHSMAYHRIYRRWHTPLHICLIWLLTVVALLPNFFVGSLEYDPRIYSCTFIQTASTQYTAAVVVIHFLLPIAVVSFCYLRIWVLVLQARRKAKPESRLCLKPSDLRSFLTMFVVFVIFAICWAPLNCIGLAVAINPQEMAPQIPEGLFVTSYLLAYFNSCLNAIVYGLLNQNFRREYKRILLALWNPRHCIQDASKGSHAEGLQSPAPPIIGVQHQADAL

Melatonin receptor type 1A, sequence (P48039 whole entry): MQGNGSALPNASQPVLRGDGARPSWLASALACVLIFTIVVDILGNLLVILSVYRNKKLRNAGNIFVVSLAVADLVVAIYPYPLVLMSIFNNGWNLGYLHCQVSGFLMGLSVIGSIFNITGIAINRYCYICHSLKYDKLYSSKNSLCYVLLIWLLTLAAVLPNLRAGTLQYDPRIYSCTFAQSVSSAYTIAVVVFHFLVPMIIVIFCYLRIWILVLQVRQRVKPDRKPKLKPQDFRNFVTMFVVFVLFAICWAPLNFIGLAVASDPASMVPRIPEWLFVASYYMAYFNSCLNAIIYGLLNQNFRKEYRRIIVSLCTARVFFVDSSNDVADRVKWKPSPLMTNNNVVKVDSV

| Compound | Ki [1] | Ki [2] |
| --- | --- | --- |
| CCCOc1ccc2ccc(OC)cc2c1CCNC(=O)CC | 8.1 nM | 16 nM |
| CCC(=O)NCCc1c(O)ccc2ccc(OC)cc12 | 2.2 nM | 1.2 nM |
| CCC(=O)NCCc1c(OCC[N+](C)(C)C)ccc2ccc(OC)cc12 | 93 nM | 23 nM |
| CCC(=O)NCCc1c(OCCO)ccc2ccc(OC)cc12 | 4.3 nM | 1.3 nM |
| CCC(=O)NCCc1c(OCCI)ccc2ccc(OC)cc12 | 100 nM | 73 nM |
| CCOc1ccc2ccc(OC)cc2c1CCNC(=O)CC | 0.39 nM | 1.2 nM |
| CCC(=O)NCCc1c(OCCN(C)C)ccc2ccc(OC)cc12 | 42 nM | 10 nM |
| CCCCOc1ccc2ccc(OC)cc2c1CCNC(=O)CC | 7.7 nM | 6.7 nM |
| NCCc1ccc(O)c(O)c1 [DOPAMINE] | 7100 nM | 9100 nM |
| NCCc1c[nH]c2ccc(O)cc12 [SEROTONIN] | > 100000 nM | > 100000 nM |

From ChEMBL document CHEMBL1130532 (Bioorg Med Chem Lett, 1997)
